Source: PubChem BioAssay (NCI)
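Cultured in 96-well plates, cells were exposed to test compound for 48 hours across five concentrations. At the GI50, growth is halved. TGI: total growth inhibition.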

Test system: MDA-MB-468 breast
Assay: NCI-60 cell line screen, 48 h

c1ccc(-c2nc3n(c2-c2ccc4c(c2)OCO4)CCC3)nc1 showed a GI50 of 5.81 µM and a TGI of 17 µM.

Compound CC(C)(C)[Si](C)(C)OC1[C@@H](CNC(N)=O)O[C@@H](n2cnc3c(NC(=O)Nc4ccccc4)ncnc32)[C@H]1O[Si](C)(C)C(C)(C)C (stereo partly specified) has a GI50 of 2.15 µM and a TGI of 8.23 µM.

Compound CCCN(CCC)c1ccc(C=O)c(Cl)c1 has a GI50 of 0.0538 µM and a TGI of 0.243 µM.

In the case of CCCCCCCCCc1ccc(OCCOCCOCCOCCOCCOCCOCCOCCOCCO)cc1, the GI50 was 0.066 µM and the TGI was 1.18 µM.

In the case of CCSc1ccc([C@@H]2[C@@H](O)C(=O)N2c2cc(OC)c(OC)c(OC)c2)cc1, the GI50 was < 0.01 µM and the TGI was 57.6 µM.

Compound CN(Cc1ccc(F)cc1)c1ccc(CO)c(Cl)c1 has a GI50 of 0.058 µM and a TGI of 0.207 µM.

For C=C1C(=O)O[C@H]2[C@H]1CC/C(COC(=O)NCc1ccc(Cn3c(=O)sn(CCCCC)c3=O)cc1)=C\CC[C@@]1(C)O[C@@H]21, the GI50 was 1.19 µM and the TGI was 2.64 µM.

Cc1ccc2c(n1)C(=O)C(Cl)=C(Nc1ccc(C(=O)OC(C)(C)C)cc1)C2=O showed a GI50 of 11.1 µM and a TGI of 26.7 µM.

Compound Cc1cc(N/N=C/c2nc(-c3ccc(Cl)cc3)oc2C)c2cc(Br)ccc2n1 has a GI50 of 1.6 µM and a TGI of 3.63 µM.

CCN1[C@@H](C(=O)NC23CCC(C(=O)O)(CC2)CC3)[C@H](c2cccc(Cl)c2F)[C@]2(C(=O)Nc3cc(Cl)ccc32)C12CCCCC2 was tested, and the GI50 was 2.18 µM and the TGI was 6.68 µM.

Work on CCOC(=O)c1sc(-c2ccc(OS(=O)(=O)C[C@]34CCC(CC3=O)C4(C)C)c(C=O)c2)nc1C yielded a GI50 of 0.966 µM and a TGI of 3.3 µM.

CC(=O)c1ccc2c(c1)N(CCCN1CCN(CCO)CC1)c1ccccc1S2 showed a GI50 of 1.67 µM and a TGI of 3.21 µM.

Cc1cn(-c2cccc(NC(=O)c3ccc(C)c(Nc4nccc(-c5cccnc5)n4)c3)c2)cn1 showed a GI50 of 1.61 µM and a TGI of 3.18 µM.

In the case of COc1cc(F)ccc1-c1cc(Nc2cc(CS(C)(=N)=O)ccn2)ncc1F (stereo unspecified), the GI50 was 0.0915 µM and the TGI was 0.445 µM.

O=C(Nc1cccc2[nH]c(C(F)(F)F)nc12)c1cc(Cl)ccc1Cl gave a GI50 of 2.52 µM and a TGI of 7.74 µM.

CCOP(=O)(OCC)OC[C@]12CCC(C)(C)C=C1[C@H]1CC[C@@H]3[C@@]4(C)CC[C@H](OP(=O)(OCC)OCC)C(C)(C)[C@@H]4CC[C@@]3(C)[C@]1(C)CC2 was tested, and the GI50 was 1.3 µM and the TGI was 2.93 µM.

With COc1ccc(Nc2nc(Nc3cc(C)[nH]n3)c3cc(OC)c(OC)cc3n2)cc1 the GI50 was 1.01 µM and the TGI was 2.53 µM.

With Nc1c(C(=O)c2cccc(C#CCN3CCCCC3)c2)cnn1-c1ccc(F)cc1 the GI50 was 7.72 µM and the TGI was > 25 µM.

COc1ccc2c(c1)C(=O)/C(=C/c1cccc(OCC(=O)Nc3nc(C)c(C)s3)c1)O2 was tested, and the TGI was 0.0176 µM.

COc1ccc(-c2nc(-c3nc4cc(Cl)c(F)cc4[nH]3)c3ccccn23)cc1 gave a GI50 of 2.93 µM and a TGI of 30.3 µM.

COc1cc(C2=NN(C(C)=O)C(c3cc(OC)c(OC)c(OC)c3)C2)ccc1O (stereo unspecified) gave a GI50 of 0.265 µM and a TGI of 3.61 µM.

For Nc1nc(N)c2cc(Sc3ccc4ccccc4c3)ccc2n1, the GI50 was 1.1 µM and the TGI was 2.39 µM.

COc1ccc(-c2cnnn2-c2nonc2-n2cccc2)cc1OC gave a GI50 of 2 µM and a TGI of 7.9 µM.

Cc1ccc2sc3c(c2c1)OC(N)=C(C#N)C3c1cccc(F)c1 (stereo unspecified) gave a GI50 of 0.225 µM and a TGI of 0.724 µM.

N=c1ccc2nc3ccc(N)cc3sc-2c1 showed a GI50 of 3.02 µM and a TGI of 8.12 µM.

Compound CCCC1(CN2c3ccccc3Sc3ccc(Cl)cc32)CCN(CC)C1 (stereo unspecified) has a GI50 of 1.6 µM and a TGI of 3.14 µM.

In the case of C=C1C(=O)O[C@H]2[C@H]1CC/C(Cn1cc(-c3ccc(N)cc3)nn1)=C\CC[C@@]1(C)O[C@@H]21, the GI50 was 1.77 µM and the TGI was 4.21 µM.

Clc1ccc(/C=C/c2ccc3ccccc3n2)cc1 gave a GI50 of 0.419 µM and a TGI of 2.95 µM.

CCOC(=O)c1ccc(NC(=O)NC2=NCCS2)cc1 was tested, and the GI50 was 0.623 µM and the TGI was > 26.4 µM.

COc1ccc2[nH]cc(-c3cc(N)n4nc(-c5c[nH]c6ccc(OC)cc56)cc4n3)c2c1 gave a GI50 of 1.73 µM and a TGI of 3.75 µM.

Cc1cc(NCc2cc(Nc3ccnc4cc(Cl)ccc34)ccc2F)nc(N2CCOCC2)n1 showed a GI50 of 1.94 µM and a TGI of 5.64 µM.

For CCn1cc(/C=C2\Oc3cc(OCC#N)ccc3C2=O)c2cc(OC)ccc21, the GI50 was 0.802 µM and the TGI was 13.7 µM.

COc1cccc(CNc2ncnc3c2ncn3C2OC(CO)C(O)C2O)c1O (stereo unspecified) was tested, and the GI50 was 0.137 µM and the TGI was 2.09 µM.

O=C(CC1(O)C(=O)Nc2ccc(F)cc21)c1ccc(C(=O)NCC2CCC3(CC2)OOC2(CCCCC2)OO3)cc1 (stereo unspecified) gave a GI50 of 4.54 µM and a TGI of 21.6 µM.

For COc1cc(OC)c2sc(-c3ccc(-n4cncc4-c4ccc(OC)c(OC)c4)cc3)nc2c1, the GI50 was 4.15 µM and the TGI was > 100 µM.

In the case of Cc1cc(CCl)c(C)cc1CCl, the GI50 was 0.379 µM and the TGI was 1.6 µM.

With COc1ccc(C2=NC(=O)NC2c2ccc(OC)cc2)cc1 (stereo unspecified) the GI50 was 4.71 µM and the TGI was 43.7 µM.

In the case of COc1ccc(C(=O)c2sc3nc(-c4ccccc4OC)ccc3c2N)cc1OC, the GI50 was 6.28 µM and the TGI was > 100 µM.

COc1cc([C@@H]2c3cc4c(cc3[C@H](OC(C)=O)[C@H]3COC(=O)[C@@H]23)OCO4)cc(OC)c1OC was tested, and the GI50 was 0.293 µM and the TGI was 5.45 µM.

In the case of C/C(=C(/c1ccccc1)c1ccc(OCC(O)CNCCN2CCOCC2)cc1)c1ccccc1 (stereo unspecified), the GI50 was 1.41 µM and the TGI was 2.85 µM.

Compound CN(C)CCCOc1cccc(NC2=C(Cl)C(=O)C(Nc3cccc(OCCCN(C)C)c3)=C(Cl)C2=O)c1 has a GI50 of 0.212 µM and a TGI of 0.458 µM.

Cn1c(=O)n(C)c2cc(CNCCNc3ccnc4cc(Cl)ccc34)ccc21 was tested, and the GI50 was 14.4 µM and the TGI was 32.4 µM.

Work on Cc1ccc(S(=O)(=O)c2nc(-c3ccccc3)oc2S(C)(=O)=O)cc1 yielded a GI50 of 1.77 µM and a TGI of 3.84 µM.

For C=C1C(=O)O[C@H]2[C@H]1CC/C(COC(=O)N[C@H]1C[C@H](O[C@H]3C[C@](O)(C(=O)CO)Cc4c(O)c5c(c(O)c43)C(=O)c3c(OC)cccc3C5=O)O[C@@H](C)[C@H]1O)=C\CC[C@@]1(C)O[C@@H]21, the GI50 was 0.793 µM and the TGI was 2.04 µM.

COc1cc(OCc2cccc(-c3ccccc3)c2C)cc(OC)c1CN1CCCCC1C(=O)NCCOCCOCCN (stereo unspecified) gave a GI50 of 1.7 µM and a TGI of 3.43 µM.

For FC(F)(F)c1ccc(-c2nn3ncccc3c2-c2ccnc(Nc3ccc4c(c3)OCCO4)n2)cc1, the GI50 was 4.52 µM and the TGI was 17.6 µM.
